# Legend:
# Format in all cases: binding
# [1] = molecular target: kinases (KINOMEscan panel) (Homo sapiens, UniProt Q16539)
# [2] = molecular target: kinases (KINOMEscan panel) (Homo sapiens, UniProt Q96GD4); conditions: kinase AURKB; NEW KINOMEscan
# [3] = molecular target: T1, kinases (KINOMEscan panel) (Homo sapiens, UniProt Q9UHD2); conditions: TBK1; NEW KINOMEscan
# T1 sequence (Q9UHD2 1-729): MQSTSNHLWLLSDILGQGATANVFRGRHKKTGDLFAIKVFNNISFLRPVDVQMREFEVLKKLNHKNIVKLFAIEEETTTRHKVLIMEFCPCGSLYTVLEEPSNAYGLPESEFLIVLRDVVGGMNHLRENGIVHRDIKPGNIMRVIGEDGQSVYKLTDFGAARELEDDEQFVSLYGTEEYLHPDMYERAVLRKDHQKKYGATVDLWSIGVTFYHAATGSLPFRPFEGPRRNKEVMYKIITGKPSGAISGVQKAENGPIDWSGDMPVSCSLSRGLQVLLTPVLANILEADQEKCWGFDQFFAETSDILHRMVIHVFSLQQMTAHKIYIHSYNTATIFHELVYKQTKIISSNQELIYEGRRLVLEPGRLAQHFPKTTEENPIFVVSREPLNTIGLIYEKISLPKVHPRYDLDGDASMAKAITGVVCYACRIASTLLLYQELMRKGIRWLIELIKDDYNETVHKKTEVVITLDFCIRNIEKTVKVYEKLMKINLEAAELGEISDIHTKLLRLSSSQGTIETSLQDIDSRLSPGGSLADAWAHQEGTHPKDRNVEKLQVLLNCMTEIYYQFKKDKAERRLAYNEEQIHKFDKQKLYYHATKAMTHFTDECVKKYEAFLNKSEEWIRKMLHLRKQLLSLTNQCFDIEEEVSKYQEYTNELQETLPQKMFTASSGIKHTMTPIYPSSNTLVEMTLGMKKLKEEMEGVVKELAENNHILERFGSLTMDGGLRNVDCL
# [4] = molecular target: T2, kinases (KINOMEscan panel) (Homo sapiens, UniProt P52333); conditions: kinase JAK3(JH1domain-catalytic); NEW KINOMEscan
# T2 sequence (P52333 1-1124): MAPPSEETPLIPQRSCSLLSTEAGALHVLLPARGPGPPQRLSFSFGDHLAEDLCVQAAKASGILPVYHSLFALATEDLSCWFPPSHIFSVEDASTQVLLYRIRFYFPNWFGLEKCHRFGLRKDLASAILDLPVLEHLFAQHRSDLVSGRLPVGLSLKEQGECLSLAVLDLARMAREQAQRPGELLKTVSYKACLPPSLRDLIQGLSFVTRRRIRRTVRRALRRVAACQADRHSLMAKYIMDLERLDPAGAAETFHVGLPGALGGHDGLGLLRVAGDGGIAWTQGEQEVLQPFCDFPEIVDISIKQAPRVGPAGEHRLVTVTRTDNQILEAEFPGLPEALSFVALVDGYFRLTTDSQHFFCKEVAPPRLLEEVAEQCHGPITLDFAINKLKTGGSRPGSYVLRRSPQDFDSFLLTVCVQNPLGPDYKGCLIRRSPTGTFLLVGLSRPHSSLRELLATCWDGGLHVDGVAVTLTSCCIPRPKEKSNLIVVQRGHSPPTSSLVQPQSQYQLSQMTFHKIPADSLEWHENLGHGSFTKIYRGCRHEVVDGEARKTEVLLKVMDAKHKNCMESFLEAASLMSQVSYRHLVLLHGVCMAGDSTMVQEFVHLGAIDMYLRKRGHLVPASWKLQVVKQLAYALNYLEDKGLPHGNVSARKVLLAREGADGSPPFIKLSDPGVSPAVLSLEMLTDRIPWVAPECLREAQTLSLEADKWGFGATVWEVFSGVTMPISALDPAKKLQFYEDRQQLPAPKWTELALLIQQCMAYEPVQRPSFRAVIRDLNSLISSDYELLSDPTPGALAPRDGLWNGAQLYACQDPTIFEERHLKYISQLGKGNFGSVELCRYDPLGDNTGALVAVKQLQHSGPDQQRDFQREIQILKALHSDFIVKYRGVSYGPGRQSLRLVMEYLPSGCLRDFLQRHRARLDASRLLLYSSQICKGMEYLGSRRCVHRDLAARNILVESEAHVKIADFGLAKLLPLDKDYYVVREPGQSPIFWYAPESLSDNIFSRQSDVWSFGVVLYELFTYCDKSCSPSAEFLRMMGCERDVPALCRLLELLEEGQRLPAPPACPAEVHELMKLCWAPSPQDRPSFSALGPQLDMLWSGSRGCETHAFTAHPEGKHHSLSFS
# [5] = molecular target: kinases (KINOMEscan panel) (Homo sapiens, UniProt P00519, Q252H); conditions: NEW KINOMEscan; for KINOMEscan ABL1(Q252H)-nonphosphorylated: kinase ABL1(Q252H)-nonphosphorylated; for KINOMEscan ABL1(Q252H)-phosphorylated: kinase ABL1(Q252H)-phosphorylated
# [6] = molecular target: T3, kinases (KINOMEscan panel) (Homo sapiens, UniProt Q12851); conditions: kinase MAP4K2; NEW KINOMEscan
# T3 sequence (Q12851 1-820): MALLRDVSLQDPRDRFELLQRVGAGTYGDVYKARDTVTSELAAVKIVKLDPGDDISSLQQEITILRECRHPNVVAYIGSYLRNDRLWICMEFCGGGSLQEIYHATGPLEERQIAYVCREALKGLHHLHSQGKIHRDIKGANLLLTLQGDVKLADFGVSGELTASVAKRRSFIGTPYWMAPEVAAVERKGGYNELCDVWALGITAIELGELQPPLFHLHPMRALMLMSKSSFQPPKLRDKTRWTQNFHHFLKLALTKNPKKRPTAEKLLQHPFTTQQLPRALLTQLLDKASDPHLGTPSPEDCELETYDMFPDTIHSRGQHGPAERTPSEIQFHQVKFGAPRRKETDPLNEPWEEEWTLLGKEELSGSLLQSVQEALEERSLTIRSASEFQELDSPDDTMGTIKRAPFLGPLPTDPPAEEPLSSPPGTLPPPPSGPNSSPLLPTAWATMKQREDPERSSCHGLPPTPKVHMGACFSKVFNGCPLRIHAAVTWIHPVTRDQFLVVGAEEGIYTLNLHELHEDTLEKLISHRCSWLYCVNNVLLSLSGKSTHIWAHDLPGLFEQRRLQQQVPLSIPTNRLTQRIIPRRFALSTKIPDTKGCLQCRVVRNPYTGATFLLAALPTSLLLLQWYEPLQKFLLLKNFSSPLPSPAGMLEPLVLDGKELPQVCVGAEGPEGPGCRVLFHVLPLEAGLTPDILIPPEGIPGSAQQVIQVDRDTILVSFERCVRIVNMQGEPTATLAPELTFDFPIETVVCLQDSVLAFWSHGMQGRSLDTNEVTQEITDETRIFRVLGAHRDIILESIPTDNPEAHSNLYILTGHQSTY
# Chain of kinases (KINOMEscan panel) (Homo sapiens, UniProt Q16539) (Q16539 whole entry): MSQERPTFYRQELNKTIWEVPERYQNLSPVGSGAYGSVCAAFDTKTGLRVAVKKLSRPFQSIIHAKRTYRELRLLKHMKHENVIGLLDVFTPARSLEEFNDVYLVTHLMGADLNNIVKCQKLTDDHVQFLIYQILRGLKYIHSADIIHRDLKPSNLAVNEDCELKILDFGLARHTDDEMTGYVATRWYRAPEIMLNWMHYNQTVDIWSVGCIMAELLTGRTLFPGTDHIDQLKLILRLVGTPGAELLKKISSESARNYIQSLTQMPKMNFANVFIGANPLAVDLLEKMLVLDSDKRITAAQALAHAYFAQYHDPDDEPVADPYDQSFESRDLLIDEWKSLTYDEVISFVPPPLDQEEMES
# Chain of kinases (KINOMEscan panel) (Homo sapiens, UniProt Q96GD4) (Q96GD4 whole entry): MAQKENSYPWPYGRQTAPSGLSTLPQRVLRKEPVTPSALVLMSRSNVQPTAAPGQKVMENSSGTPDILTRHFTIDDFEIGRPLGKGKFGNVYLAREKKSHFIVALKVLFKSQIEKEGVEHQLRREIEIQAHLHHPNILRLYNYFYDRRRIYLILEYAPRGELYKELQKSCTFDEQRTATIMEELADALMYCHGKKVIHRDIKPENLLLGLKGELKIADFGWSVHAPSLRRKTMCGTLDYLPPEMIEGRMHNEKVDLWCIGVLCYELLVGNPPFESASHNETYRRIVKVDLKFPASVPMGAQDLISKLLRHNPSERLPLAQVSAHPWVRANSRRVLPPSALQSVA
SMILES,KINOMEscan MAPK14/p38-alpha [1],KINOMEscan AURKB [2],KINOMEscan TBK1 [3],KINOMEscan JAK3(JH1domain-catalytic) [4],KINOMEscan ABL1(Q252H)-nonphosphorylated [5],KINOMEscan ABL1(Q252H)-phosphorylated [5],KINOMEscan MAP4K2 [6]
Cc1cccc(-c2nc(N(C)c3ccc4ncsc4c3)c3ccccc3n2)n1 [NK-161],8,0,25,0,0,0,6
Cc1cccc(-c2nc(Nc3ccc4nn(C)cc4c3)c3ccccc3n2)n1 [NK167],5,0,44,0,0,0,0

# — article PMC9851200, “Multiparameter phenotypic screening for endogenous TFEB and TFE3 translocation identifies novel chemical series modulating lysosome function” (Autophagy, 2022)
